In brackets after ≈: the same amount, converted by molar mass.
What was measured:
[1] = system: Streptococcus faecalis; test: agar-dilution MIC; type: cell-based; details: Streptococcus faecalis X66; Table 7
[2] = system: Bacteroides vulgatis; test: agar-dilution MIC; type: cell-based; details: Bacteroides vulgatis 1211; Table 14
[3] = system: Streptococcus sp. Group B; test: agar-dilution MIC; type: cell-based; details: end point after 24 hours, Table 18
Excerpt: (§1) The in vitro activity of antibiotic A41030 factors A and B against a number of representative aerobic, gram-positive bacteria, including Streptococcus sp. Group D, has been determined using a standard agar-dilution assay.

[4] = system: Haemophilus parainfluenzae; test: agar-dilution MIC; type: cell-based; details: end point after 24 hours, Table 18
[5] = system: Viridans streptococcus; test: agar-dilution MIC; type: cell-based; details: Table 11
[6] = system: Propionibacterium acnes; test: agar-dilution MIC; type: cell-based
Excerpt: Antibiotic A41030 factors A, B and C have also been tested and found to be active against a genus of anaerobic bacteria identified as Propionibacterium acnes.

[7] = system: Clostridium septicum; test: agar-dilution MIC; type: cell-based; details: Clostridium septicum 1128; Table 14
[8] = system: Peptostreptococcus anaerobius; test: agar-dilution MIC; type: cell-based
[9] = system: rumen fluid; test: in vitro rumen fluid fermentation, volatile fatty acids; parameters: species or system steer; details: 16 hours at 38° C.
Excerpt: Rumen fluid was obtained from a steer having a surgically-installed fistula opening into the rumen. The steer was maintained on a high-grain ration, the composition of which follows: A sample of rumen fluid was strained through 4 layers of cheesecloth and the filtrate was collected in a vacuum bottle. The particulate matter retained by the cheesecloth was resuspended in enough physiological buffer to return it to the original volume of the rumen fluid, and the suspension was again strained through cheesecloth. The buffer used is described below: The two filtrates were pooled in a separatory funnel and allowed to stand till particulate matter rose to the top. The clear layer was then separated and diluted 1:1 with the same buffer, and adjusted to pH 7.0. Ten ml. of the diluted rumen fluid thus prepared was placed in a 25 ml. flask with 90 mg. of finely-powdered high-grain ration, the composition of which is described above. The compound to be tested was weighed out and dissolved in the appropriate solvent, supra. The solution was placed on the finely-powdered ration in each test flask and dried. Two sets of four untreated control flasks each were also prepared. One set of four untreated control flasks was incubated for 16 hours at 38° C. with the test flasks. […] Fermentation in the incubated test and control flasks was stopped at the end of 16 hours by addition of 2 ml. of 25 percent metaphosphoric acid to each flask. All of the samples were allowed to settle, and the supernatant was analyzed by gas chromatographic methods for acetate, propionate, and butyrate. The analysis for each volatile fatty acid found in the zero-time controls was substracted from the analyses of the untreated controls and of the test flasks. The resulting values reflect the amount of each VFA produced during the 16-hour fermentation period. The data below are reported as the ratio of VFA's produced in treated flasks to VFA's produced in untreated control flasks.

[10] = electrometric titration; type: physicochemical; details: electrometric titration in 66% dimethylformamide in water
Excerpt: Antibiotic A41030 factor A is a white, crystalline solid.

[11] = system: Shigella flexneri; details: Shigella flexneri SH-4; Table 11
Excerpt: The agar-dilution procedure described by the International Collaborative study (ICS) group was used to determine the minimum inhibitory concentrations (MIC's).

[12] = system: Bacteroides vulgatis; test: agar-dilution MIC; type: cell-based; details: B. vulgatis 1563; 24-hour; Table 12
Excerpt: (§2) The A41030 antibiotics, factors A, B, and C, are active against a genus of anaerobic bacteria identified as Bacteroides sp., the 24-hour MIC values being determined by the agar-dilution method, and are set forth in Table 12, which follows.

[13] = system: Bacteroides corrodens; test: agar-dilution MIC; type: cell-based; details: B. corrodens 1874; 24-hour; Table 12
Excerpt: as §2

[14] = system: Neisseria sp.; test: agar-dilution MIC; type: cell-based; details: Table 10
Experimental: The test results are recorded in Table 10, which follows.

[15] = system: S. pneumoniae; test: experimental bacterial infection in mice; type: in vivo; details: two doses subcutaneously
Experimental: All of the A41030 factors tested have shown in vivo antimicrobial activity against experimental bacterial infections. When two doses of test compound were administered subcutaneously to mice in illustrative infections, the activity observed is measured as an ED50 value [effective dose in mg./kg. to protect fifty percent of the test animals: See Warren Wick, et al., J. Bacteriol. 81, 233-235 (1961)].

[16] = system: Streptococcus sp. ATCC 10389; test: agar-dilution MIC; type: cell-based; details: end point after 24 hours, Table 18
Excerpt: as §1

[17] = system: Enterobacter aerogenes; test: agar-dilution MIC; type: cell-based; details: Enterobacter aerogenes C32; Table 17
Excerpt: The results after reading the which follows.

[18] = Haemophilus parainfluenzae 7901
[19] = Haemophilus parainfluenzae 9796
[20] = P. acnes 104, 24-hour, Table 13
[21] = P. acnes 107, 24-hour, Table 13
[22] = P. acnes 5170, 24-hour, Table 13
[23] = P. acnes 5176, 24-hour, Table 13
[24] = P. acnes 5187, 24-hour, Table 13
[25] = P. acnes 5197, 24-hour, Table 13
[26] = P. acnes 5226, 24-hour, Table 13
[27] = P. acnes 5227, 24-hour, Table 13
[28] = P. acnes 5228, 24-hour, Table 13
[29] = P. acnes 5229, 24-hour, Table 13
[30] = P. acnes 5246, 24-hour, Table 13
[31] = P. acnes 5292, 24-hour, Table 13
[32] = Propionibacterium acnes 79, Table 14
[33] = Peptostreptococcus anaerobius 1428, Table 14

## NC1C(=O)NC2Cc3ccc(c(Cl)c3)Oc3cc4cc(c3O)Oc3ccc(cc3Cl)C(O)C3NC(=O)C(NC(=O)C4NC(=O)C(NC2=O)c2cc(O)cc(c2)Oc2cc1ccc2O)c1cc(Cl)c(O)c(c1)-c1c(O)cc(O)cc1C(C(=O)O)NC3=O (centres unmarked) [A41030 factor A]
[1]
  MIC: < 0.5 µg/mL
[2]
  MIC: 32 µg/mL (≈ 25.9 µM)
[3]; Streptococcus sp. Group B 5
  MIC: 1 µg/mL (≈ 0.811 µM)
[3]; Streptococcus sp. Group B 14
  MIC: 0.06 µg/mL (≈ 0.0486 µM)
[4]; [18]
  MIC: 16 µg/mL (≈ 13 µM)
[4]; [19]
  MIC: 16 µg/mL (≈ 13 µM)
[5]; Viridans streptococcus SM-1134
  MIC: 0.5 µg/mL (≈ 0.405 µM)
[5]; Viridans streptococcus SSI-910
  MIC: 0.25 µg/mL (≈ 0.203 µM)
[5]; Viridans streptococcus SSII-895
  MIC: 0.25 µg/mL (≈ 0.203 µM)
[6]; [20]
  MIC: 0.25 µg/mL (≈ 0.203 µM)
[6]; [21]
  MIC: 0.06 µg/mL (≈ 0.0486 µM)
[6]; [22]
  MIC: ≤ 0.03 µg/mL
[6]; [23]
  MIC: ≤ 0.03 µg/mL
[6]; [24]
  MIC: ≤ 0.03 µg/mL
[6]; [25]
  MIC: ≤ 0.03 µg/mL
[6]; [26]
  MIC: 0.5 µg/mL (≈ 0.405 µM)
[6]; [27]
  MIC: ≤ 0.03 µg/mL
[6]; [28]
  MIC: 1.0 µg/mL (≈ 0.811 µM)
[6]; [29]
  MIC: 0.5 µg/mL (≈ 0.405 µM)
[6]; [30]
  MIC: 0.06 µg/mL (≈ 0.0486 µM)
[6]; [31]
  MIC: 0.06 µg/mL (≈ 0.0486 µM)
[6]; [32]
  MIC: ≤ 0.25 µg/mL
[7]
  MIC: 2 µg/mL (≈ 1.62 µM)
[8]; [33]
  MIC: ≤ 0.25 µg/mL
[8]; Ps. anaerobius 8, Table 15
  MIC: 0.5 µg/mL (≈ 0.405 µM)
[8]; Ps. anaerobius 52, Table 15
  MIC: 0.5 µg/mL (≈ 0.405 µM)
[8]; Ps. anaerobius 59, Table 15
  MIC: 0.5 µg/mL (≈ 0.405 µM)
[8]; Ps. anaerobius 1418, Table 15
  MIC: ≤ 0.03 µg/mL
[8]; Ps. anaerobius 1428, Table 15
  MIC: 0.5 µg/mL (≈ 0.405 µM)
[8]; Ps. anaerobius 1451, Table 15
  MIC: 0.5 µg/mL (≈ 0.405 µM)
[8]; Ps. anaerobius 1477, Table 15
  MIC: 0.5 µg/mL (≈ 0.405 µM)
[9]; 1 mcg./ml.
  Acetate, ratio of VFA's produced in treated flasks to untreated control flasks: 1.01
  Butyrate, ratio of VFA's produced in treated flasks to untreated control flasks: 0.66
  Propionate, ratio of VFA's produced in treated flasks to untreated control flasks: 1.31
[9]; 2 mcg./ml.
  Acetate, ratio of VFA's produced in treated flasks to untreated control flasks: 1.03
  Butyrate, ratio of VFA's produced in treated flasks to untreated control flasks: 0.94
  Propionate, ratio of VFA's produced in treated flasks to untreated control flasks: 1.33
[10]
  possibly additional pKa's: > 10.5
[11]
  MIC: 64 µg/mL (≈ 51.9 µM)
[12]
  MIC: 32 µg/mL (≈ 25.9 µM)
[13]
  MIC: 32 µg/mL (≈ 25.9 µM)
[14]; Neisseria sp. L. Nance
  MIC: 4.0 µg/mL (≈ 3.24 µM)
[14]; Neisseria sp. Mitchell
  MIC: 4.0 µg/mL (≈ 3.24 µM)
[14]; Neisseria sp. Sanders
  MIC: 1.0 µg/mL (≈ 0.811 µM)
[14]; Neisseria sp. Schultz
  MIC: 8.0 µg/mL (≈ 6.49 µM)
[14]; Neisseria sp. Woods
  MIC: 4.0 µg/mL (≈ 3.24 µM)

## A41030 factor C
[2]
  MIC: 32 µg/mL
[6]; [20]
  MIC: 0.25 µg/mL
[6]; [22]
  MIC: ≤ 0.03 µg/mL
[6]; [23]
  MIC: ≤ 0.03 µg/mL
[6]; [24]
  MIC: 0.06 µg/mL
[6]; [25]
  MIC: ≤ 0.03 µg/mL
[6]; [27]
  MIC: 0.06 µg/mL
[6]; [28]
  MIC: 1.0 µg/mL
[6]; [29]
  MIC: 0.5 µg/mL
[6]; [30]
  MIC: 0.06 µg/mL
[6]; [31]
  MIC: 0.06 µg/mL
[6]; [32]
  MIC: ≤ 0.25 µg/mL
[7]
  MIC: 8 µg/mL
[8]; [33]
  MIC: ≤ 0.25 µg/mL
[8]; Ps. anaerobius 52, Table 15
  MIC: 0.25 µg/mL
[8]; Ps. anaerobius 59, Table 15
  MIC: 0.25 µg/mL
[8]; Ps. anaerobius 1418, Table 15
  MIC: ≤ 0.03 µg/mL
[8]; Ps. anaerobius 1428, Table 15
  MIC: 0.25 µg/mL
[8]; Ps. anaerobius 1451, Table 15
  MIC: 0.25 µg/mL
[8]; Ps. anaerobius 1477, Table 15
  MIC: 0.25 µg/mL
[10]
  possibly additional pKa's: > 10
[12]
  MIC: 32 µg/mL
[13]
  MIC: 32 µg/mL
[15]
  ED50: 6.7 mg/kg

## N[C@H]1C(=O)N[C@@H]2Cc3ccc(c(Cl)c3)Oc3cc4cc(c3O)Oc3ccc(cc3Cl)[C@@H](O)[C@@H]3NC(=O)C(NC(=O)[C@@H]4NC(=O)[C@@H](NC2=O)c2cc(O)cc(c2)Oc2cc1ccc2O)c1ccc(O)c(c1)-c1c(O)cc(O)cc1[C@@H](C(=O)O)NC3=O [A41030 factor B]
[2]
  MIC: 32 µg/mL (≈ 26.7 µM)
[3]; Streptococcus sp. Group B 5
  MIC: 1 µg/mL (≈ 0.834 µM)
[16]
  MIC: 0.25 µg/mL (≈ 0.209 µM)
[4]; [18]
  MIC: 16 µg/mL (≈ 13.3 µM)
[4]; [19]
  MIC: 16 µg/mL (≈ 13.3 µM)
[17]
  MIC: 64 µg/mL (≈ 53.4 µM)
[6]; P. acnes 44, 24-hour, Table 13
  MIC: 0.06 µg/mL (≈ 0.05 µM)
[6]; P. acnes 79, 24-hour, Table 13
  MIC: 0.06 µg/mL (≈ 0.05 µM)
[6]; P. acnes 101, 24-hour, Table 13
  MIC: 0.06 µg/mL (≈ 0.05 µM)
[6]; P. acnes 103, 24-hour, Table 13
  MIC: 0.06 µg/mL (≈ 0.05 µM)
[6]; [20]
  MIC: 0.25 µg/mL (≈ 0.209 µM)
[6]; P. acnes 105, 24-hour, Table 13
  MIC: 0.06 µg/mL (≈ 0.05 µM)
[6]; P. acnes 106, 24-hour, Table 13
  MIC: 0.06 µg/mL (≈ 0.05 µM)
[6]; [21]
  MIC: 0.06 µg/mL (≈ 0.05 µM)
[6]; [22]
  MIC: ≤ 0.03 µg/mL
[6]; [23]
  MIC: 0.06 µg/mL (≈ 0.05 µM)
[6]; [24]
  MIC: 0.06 µg/mL (≈ 0.05 µM)
[6]; P. acnes 5191, 24-hour, Table 13
  MIC: 0.06 µg/mL (≈ 0.05 µM)
[6]; [25]
  MIC: 0.06 µg/mL (≈ 0.05 µM)
[6]; [26]
  MIC: 0.5 µg/mL (≈ 0.417 µM)
[6]; [27]
  MIC: 0.06 µg/mL (≈ 0.05 µM)
[6]; [28]
  MIC: 0.5 µg/mL (≈ 0.417 µM)
[6]; [29]
  MIC: 0.25 µg/mL (≈ 0.209 µM)
[6]; [31]
  MIC: 0.06 µg/mL (≈ 0.05 µM)
[6]; [32]
  MIC: 16 µg/mL (≈ 13.3 µM)
[7]
  MIC: 4 µg/mL (≈ 3.34 µM)
[8]; [33]
  MIC: ≤ 0.25 µg/mL
[8]; Ps. anaerobius 8, Table 15
  MIC: 0.25 µg/mL (≈ 0.209 µM)
[8]; Ps. anaerobius 52, Table 15
  MIC: 0.5 µg/mL (≈ 0.417 µM)
[8]; Ps. anaerobius 59, Table 15
  MIC: 0.25 µg/mL (≈ 0.209 µM)
[8]; Ps. anaerobius 1418, Table 15
  MIC: 0.06 µg/mL (≈ 0.05 µM)
[8]; Ps. anaerobius 1428, Table 15
  MIC: 0.25 µg/mL (≈ 0.209 µM)
[8]; Ps. anaerobius 1451, Table 15
  MIC: 0.25 µg/mL (≈ 0.209 µM)
[10]
  possibly additional pKa's: > 10
[12]
  MIC: 32 µg/mL (≈ 26.7 µM)
[13]
  MIC: 32 µg/mL (≈ 26.7 µM)
[15]
  ED50: 1.4 mg/kg

Reference: patent US4604239A, “Antibiotics” (Eli Lilly and Company, priority 1985, dated 1986)
